Data on six molecules can be found in PMC6787355, “Purification, kinetic characterization, and site-directed mutagenesis of Methanothermobacter thermautotrophicus RFAP Synthase Produced in Escherichia coli” (AIMS Microbiology, 2019).

For orientation: Kd means the equilibrium constant for the complex coming apart. What is called Vmax is the top rate of the reaction or transport when substrate is in excess. As a reminder, the Km is the substrate concentration at which the rate is half of its maximum. The term stoichiometry N denotes a count of units in the complex or per binding partner.

Series [1] addresses wild-type MTH0830 RFAP synthase (Methanothermobacter thermautotrophicus, UniProt O26918). The series is described as follows: Isothermal titration calorimetry, wild-type enzyme. Format: binding. Particulars: ITC, 35 °C. The protocol: (§1) The ITC conditions previously established for M. jannaschii RFAP synthase were modified for the RFAP synthase from M. thermautotrophicus. Partially purified wild-type (heat-treated at 65 °C) and variant (heat-treated at 50 °C) RFAP synthases (2–5 mL) were dialyzed against two changes of buffer (250 mL each of 50 mM Tris, 100 mM NaCl, pH 7.6). […] All ITC measurements were carried out using a NANO-ITC isothermal titration calorimeter (TA Instruments, New Castle, DE).
(§2) Following an 1800 s delay, 10 injections of 5 µL of PRPP each were added every 240 seconds with stirring at 300 rpm.
A general note: Isothermal titration calorimetry measures the heat released or taken up as one component is titrated into another.

Series [2] addresses T1, MTH0830 RFAP synthase D19N variant (Methanothermobacter thermautotrophicus, UniProt O26918, D19N).
T1 sequence (O26918 1-329 D19N): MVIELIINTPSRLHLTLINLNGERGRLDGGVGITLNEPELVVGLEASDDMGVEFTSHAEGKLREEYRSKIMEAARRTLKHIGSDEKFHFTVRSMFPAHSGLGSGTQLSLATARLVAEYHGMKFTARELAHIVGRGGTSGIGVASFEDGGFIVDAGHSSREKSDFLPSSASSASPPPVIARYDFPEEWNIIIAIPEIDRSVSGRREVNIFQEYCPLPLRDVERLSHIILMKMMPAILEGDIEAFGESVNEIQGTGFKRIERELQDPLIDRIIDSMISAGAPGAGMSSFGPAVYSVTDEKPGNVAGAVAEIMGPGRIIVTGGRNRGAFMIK
The series is described as follows: Isothermal titration calorimetry, D19N variant. The format is binding. Here is the method: as §1, §2

Series [3] addresses T2, MTH0830 RFAP synthase R26K variant (Methanothermobacter thermautotrophicus, UniProt O26918, R26K).
T2 sequence (O26918 1-329 R26K): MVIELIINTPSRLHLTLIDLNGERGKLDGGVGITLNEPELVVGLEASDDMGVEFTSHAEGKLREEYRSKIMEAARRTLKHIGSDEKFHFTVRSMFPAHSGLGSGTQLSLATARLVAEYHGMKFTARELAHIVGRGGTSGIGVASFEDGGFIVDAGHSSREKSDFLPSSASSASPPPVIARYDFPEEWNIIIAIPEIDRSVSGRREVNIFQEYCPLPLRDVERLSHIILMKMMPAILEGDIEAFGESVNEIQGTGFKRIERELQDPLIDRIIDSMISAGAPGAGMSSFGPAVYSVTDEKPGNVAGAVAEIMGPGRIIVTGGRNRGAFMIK
The series is described as follows: Isothermal titration calorimetry, R26K variant. The format is binding. Here is the method:
as §1, §2

The target of series [4] is RFAP synthase from M. jannaschii. On the set-up: method as in PMID 15262968. The conditions noted are these: read-out: binding constant (KD) for PRPP; cited from earlier work.
The target of series [5] is T3, wild-type M. thermautotrophicus RFAP synthase (MTH0830) produced in E. coli (Methanothermobacter thermautotrophicus, UniProt O26918).
T3 sequence (O26918 1-329): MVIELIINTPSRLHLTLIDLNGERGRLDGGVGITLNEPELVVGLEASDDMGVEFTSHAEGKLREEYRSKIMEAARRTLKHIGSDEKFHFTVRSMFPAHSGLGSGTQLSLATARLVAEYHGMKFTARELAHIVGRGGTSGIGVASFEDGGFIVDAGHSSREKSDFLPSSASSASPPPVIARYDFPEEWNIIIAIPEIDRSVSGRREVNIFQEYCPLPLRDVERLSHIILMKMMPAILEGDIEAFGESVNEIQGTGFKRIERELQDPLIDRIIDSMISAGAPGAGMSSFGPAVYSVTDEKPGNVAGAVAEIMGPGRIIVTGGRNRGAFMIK
The series is described as follows: RFAP synthase enzyme assay (azo-dye derivative of RFAP), wild-type recombinant enzyme. Particulars: for Vmax / Km: 8.8 mM PRPP; for Km: read-out: KM for pABA. Format: biochemical.

Series [6] has as its system RFAP synthase from M. thermophila. Particulars: read-out: apparent KM for pABA; cited from earlier work.
For series [7] the following is noted: two acidic pKa values; cited from earlier work.
Series [8] relates to RFAP synthase from M. jannaschii. On the set-up: method as in PMID 9698382, PMID 15262968. Particulars: read-out: apparent KM for pABA; cited from earlier work.
For series [9], the target named is Methanothermobacter thermautotrophicus β-ribofuranosylaminobenzene 5′-phosphate (RFAP) synthase, wild type, recombinant (Methanothermobacter thermautotrophicus). Kind of series: SEC; Superdex 75 gel filtration column in 50 mM TES, 150 mM KCl, 2 mM DTT, ambient temperature; enzyme eluted after 19 min, corresponding to 68.7 kDa; subunit size from SDS-PAGE.
Substrate in series [10]: Nc1ccc(C(=O)O)cc1
The series is described as follows: purified protein, by the assay type.

Substrate in series [11]: Nc1ccc(C(=O)O)cc1
The series is described as follows: RFAP synthase enzyme assay, R26K variant. Format: biochemical, Methanothermobacter thermautotrophicus. Particulars: other: 50 °C, 3 h, pH 6.8, 8.8 mM PRPP. The protocol:
RFAP synthase activity was determined by producing the azo-dye derivative of the product RFAP as described previously,[17]. […] From this point on, the amount of enzyme used in activity assays was within the linear range of 8 to 12 µg. […] All assays were carried out under optimal enzymatic conditions in 70 mM PIPES (pH 6.8), 2 mM DTT at 70 °C for 1 h.
Due to the inability of the variants to function at 70 °C, the enzymatic assays comparing variant and wild-type kinetics were run in 70 mM PIPES (pH 6.8) with 2 mM DTT at 50 °C for three hours using a single time-point assay. This is the time period over which the enzyme activities were linear at the lower temperature of 50 °C. For these kinetic studies, the wild-type enzyme was purified in the same manner as the variants and was also examined at 50 °C for three hours.

Where “and” joins values, the source holds several entries; their conditions need not be identical. Equal entries are not always repeated. Where two headings read alike, the source gives them in different places.

Take `O=P(O)(O)OC[C@H]1OC(OP(=O)(O)OP(=O)(O)O)[C@H](O)[C@@H]1O` (some centres unmarked) [PRPP, phosphoribosyl-pyrophosphate]: the Kd is 2.1 ± 0.11 mM in series [1] (read-out: KD for PRPP), 2 ± 0.3 mM in series [2], 2.4 ± 0.25 mM in [3] and 2 mM in series [4].

Regarding `Nc1ccc(C(=O)O)cc1` [pABA, p-aminobenzoic acid], the Vmax in [5] (50 °C, 3 h, pABA varied, partially purified) was 1.45 nmol/min/mg and 1.5 nmol/min/mg; in [5] (70 °C, pABA varied 181 µM to 36 mM), “approximately 190 nmol/min/mg protein”. In series [5] (near neutral conditions versus homologs with pH optimum at 5.3), the “fold higher KM compared to previous homologs” value is listed as 26 fold. Moreover, the Km in [5] (50 °C, 3 h, pH 6.8, partially purified without heat step) is 3.9 mM; in series [5] (70 °C, pH 6.8, 1 h, 17.6 mM MgCl2, enzyme purified through Mono Q) it was 4.5 mM; in [6], 58 µM; in [8] it was 150 µM. In addition, the Kd in series [1] (in presence of saturating PRPP) was found to be 0.96 ± 0.65 mM. In [7], the “acidic pKa” value is 4.65 and 4.80.

With “Methanothermobacter thermautotrophicus β-ribofuranosylaminobenzene 5′-phosphate (RFAP) synthase, wild type, recombinant (enzyme)”, the stoichiometry N in series [9] is 2.

B1: wild-type M. thermautotrophicus RFAP synthase (MTH0830) produced in E. coli (Methanothermobacter thermautotrophicus str. Delta H) (protein)
chain: MVIELIINTPSRLHLTLIDLNGERGRLDGGVGITLNEPELVVGLEASDDMGVEFTSHAEGKLREEYRSKIMEAARRTLKHIGSDEKFHFTVRSMFPAHSGLGSGTQLSLATARLVAEYHGMKFTARELAHIVGRGGTSGIGVASFEDGGFIVDAGHSSREKSDFLPSSASSASPPPVIARYDFPEEWNIIIAIPEIDRSVSGRREVNIFQEYCPLPLRDVERLSHIILMKMMPAILEGDIEAFGESVNEIQGTGFKRIERELQDPLIDRIIDSMISAGAPGAGMSSFGPAVYSVTDEKPGNVAGAVAEIMGPGRIIVTGGRNRGAFMIK
As to B1, the Km in [10] (other: 50 °C, 3 h, pH 6.8, 8.8 mM PRPP, partially purified without heat step, 50.0 °C) stood at 3.9 mM; in [10] (other: 70 °C, pH 6.8, 1 h, 8.8 mM PRPP, 17.6 mM MgCl2, enzyme purified through Mono Q, 70.0 °C), 4.5 mM; in [10] (other: enzymatic assays, summary of Figure 3 and Table 2, pH 6.8), 4 mM.

B2: MTH0830 RFAP synthase D19N variant (Methanothermobacter thermautotrophicus str. Delta H; D19N) (protein)
chain: MVIELIINTPSRLHLTLINLNGERGRLDGGVGITLNEPELVVGLEASDDMGVEFTSHAEGKLREEYRSKIMEAARRTLKHIGSDEKFHFTVRSMFPAHSGLGSGTQLSLATARLVAEYHGMKFTARELAHIVGRGGTSGIGVASFEDGGFIVDAGHSSREKSDFLPSSASSASPPPVIARYDFPEEWNIIIAIPEIDRSVSGRREVNIFQEYCPLPLRDVERLSHIILMKMMPAILEGDIEAFGESVNEIQGTGFKRIERELQDPLIDRIIDSMISAGAPGAGMSSFGPAVYSVTDEKPGNVAGAVAEIMGPGRIIVTGGRNRGAFMIK
For B2, the Km in [10] (other: 50 °C, 3 h, pH 6.8, 8.8 mM PRPP) was determined as 12 mM.

B3: MTH0830 RFAP synthase R26K variant (Methanothermobacter thermautotrophicus str. Delta H; R26K) (protein)
chain: MVIELIINTPSRLHLTLIDLNGERGKLDGGVGITLNEPELVVGLEASDDMGVEFTSHAEGKLREEYRSKIMEAARRTLKHIGSDEKFHFTVRSMFPAHSGLGSGTQLSLATARLVAEYHGMKFTARELAHIVGRGGTSGIGVASFEDGGFIVDAGHSSREKSDFLPSSASSASPPPVIARYDFPEEWNIIIAIPEIDRSVSGRREVNIFQEYCPLPLRDVERLSHIILMKMMPAILEGDIEAFGESVNEIQGTGFKRIERELQDPLIDRIIDSMISAGAPGAGMSSFGPAVYSVTDEKPGNVAGAVAEIMGPGRIIVTGGRNRGAFMIK
As for B3, in [11], the Km is given as 38 mM and the Vmax was 0.005 µmol/min/mg.
